Tests used:
guinea pig skin [1] = test: Cutaneous phototoxicity after systemic (I.P.) administration and UVA; type: in vivo, Guinea pigs; settings: 10 mg/kg I.P., graded 24 hours post light
Description: (§1) HPD, DHE, hematoporphyrin and protoporphyrin were provided by Dr. Thomas J. Dougherty, Roswell Park Memorial Institute, Buffalo, NY. Hydroxyvinyldeuteroporphyrin was obtained from Porphyrin Products, Salt Lake City, UT.
Guinea pigs were treated systemically (I.P.) with the various porphyrins, each at a dose of 10 mg/kg. Animals were then irradiated with UVA (20 J/cm^2), either at 6 hours or 24 hours post drug administration. Erythema was graded at 24 hours post light treatment.

skin cancers = settings: cited from earlier work
psoriasis = settings: oral methoxysalen plus long-wave ultraviolet light (PUVA); cited from earlier work
guinea pig skin [2] = test: Cutaneous phototoxicity after intradermal administration and UVA (minimum phototoxic dose); type: in vivo; settings: intradermal 5-500 μg/0.1 ml; UVA 20 J/cm^2 6 hours post injection
Description: as §1
(§2) Drugs were administered intradermally at doses ranging from 5-500 μg/0.1 ml. Sites were then treated with UVA (20 J/cm^2) 6 hours post drug injection.

epidermal DNA synthesis = test: Effect of topical DHE plus UVA on epidermal DNA synthesis in vivo; design: species or system Mini-pigs
Description: The topical activity of DHE was evaluated in vivo in a mini-pig model.
Mini-pigs were obtained from Charles River Laboratories, Inc. (Wilmington, MA). Drug preparations were applied to small areas of dorsal skin (ca 1 inch square) according to the selected application schedules. Six hours following the last drug application, tritiated thymidine was injected into the drug treatment sites for autoradiographic assessment of epidermal proliferation as measured by epidermal labeling index. Weinstein & Van Scott, (1965) J. Invest. Derm. 44:413.
DHE was acid precipitated from a Photofrin II solution by adjusting the pH to 3.5. The precipitated DHA was washed extensively with distilled water until the pH of the filtrate reached 6.0. The DHE powder was vacuum dried, reconstituted in distilled water, and the pH adjusted to 7.0. Aqueous DHE was then mixed with isopropanol and Azone. […] This formulation was applied to selected areas of mini-pig skin approximately 6 hours before irradiation with UVA. Epidermal DNA synthesis was assayed as described above. At 0, 24, 48, and 72 hours post-irradiation, the animals were injected at the selected sites with isotopic precursors (tritiated thymidine). The animals were biopsied one hour after isotopic injection.

guinea pig skin [3] = test: Drug/UVA dosimetry with intradermal HPD and DHE; type: in vivo
Description: as §1, §2
Additional studies were done with intradermal HPD and DHE to study the drug/UVA dosimetry.

malignant cells = settings: HPD enriched for DHE, administered systemically; cited from earlier work

Q: For CC1=C(CCC(=O)O)c2cc3[nH]c(cc4nc(cc5[nH]c(cc1n2)c(C)c5C(C)O)C(C)=C4C(C)O)c(C)c3CCC(=O)O (stereo not shown) [hematoporphyrin], which erythema response (guinea pig skin [1]; UVA 20 J/cm^2 at 6 hours) is on record?
A: mild response

Q: Which “skin cancers in patients following PUVA” value (skin cancers) does the source give for COc1c2occc2cc2ccc(=O)oc12 [methoxysalen] here?
A: increased pattern of skin cancers

Q: What about the “clinical effectiveness in psoriasis” value (psoriasis) of the same compound?
A: relatively effective for the majority of patients

Q: With C=CC1=C(C)c2cc3[nH]c(cc4nc(cc5[nH]c(cc1n2)c(C)c5CCC(=O)O)C(CCC(=O)O)=C4C)c(C)c3C=C [protoporphyrin] as the compound, how does the erythema response (guinea pig skin [1]; UVA 20 J/cm^2 at 6 hours) read?
A: No response

Q: With Hydroxyvinyldeuteroporphyrin as the compound, how does the erythema response (guinea pig skin [1]; UVA 20 J/cm^2 at 6 hours) read?
A: No response

Q: And the minimum phototoxic dose (guinea pig skin [2])?
A: > 500 µg

Q: What does the source list for dihematoporphyrin ether [DHE]?
A: time of maximum effect post light treatment (epidermal DNA synthesis; 1% DHE topical plus UVA, autoradiographically and clinically): 72 h; inhibition of DNA synthesis compared to vehicle control plus UVA (epidermal DNA synthesis; 1% DHE topical, 48% isopropanol, 4% Azone, 48% water, 5-10 applications plus UVA, FIG. 1): significant inhibition of DNA synthesis; erythema response (guinea pig skin [1]; UVA 20 J/cm^2 at 6 hours): significant response; erythema response (guinea pig skin [1]; UVA 20 J/cm^2 at 24 hours, compared with 6 hours for HPD and DHE): greater; erythema, UVA at 24 hours vs 6 hours post injection (guinea pig skin [3]; intradermal): more pronounced erythema; UVA dose effective in producing erythema (guinea pig skin [3]; intradermal DHE 5 μg/cm^2): 1 J/cm^2; erythema response compared with HPD (guinea pig skin [3]; intradermal DHE 5 μg/cm^2, comparable treatments): slightly greater than with comparable treatments with HPD; area of erythema, UVA at 24 hours vs 6 hours post injection (guinea pig skin [3]; intradermal, local drug diffusion from injection site): larger area of erythema; minimum phototoxic dose (guinea pig skin [2]): 5 µg; phototoxicity toward malignant cells (malignant cells): phototoxic properties toward malignant cells
